Source: the NIST ThermoML archive (doi:10.1021/acs.jced.7b00464)
Numbers after ± are expanded uncertainties.

Experiment: mn = molality of the nth substance listed, in mol/kg
Conditions: 101.3 kPa, Liquid; for speed of sound: Frequency=3 MHz, Single path-length method; for mass density: Vibrating tube method

CCCCn1cc[n+](C)c1.[Br-] [1-butyl-3-methylimidazolium bromide] + O
Conditions | mass density, 293.15 K [kg/m3] | mass density, 298.15 K [kg/m3] | mass density, 303.15 K [kg/m3] | mass density, 308.15 K [kg/m3] | speed of sound, 293.15 K [m/s] | speed of sound, 298.15 K [m/s] | speed of sound, 303.15 K [m/s] | speed of sound, 308.15 K [m/s]
m1 = 0.1009 | 1003.27 ± 0.31 | 1002.03 ± 0.31 | 1000.58 ± 0.31 | 998.918 ± 0.31 | 1493.5 ± 1 | 1506.5 ± 1 | 1517.9 ± 1 | 1527.7 ± 1
m1 = 0.2003 | 1008.11 ± 0.31 | 1006.83 ± 0.31 | 1005.32 ± 0.31 | 1003.62 ± 0.31 | 1503.6 ± 1.1 | 1515.8 ± 1.1 | 1526.2 ± 1.1 | 1535.2 ± 1.1
m1 = 0.2985 | 1012.68 ± 0.31 | 1011.33 ± 0.31 | 1009.77 ± 0.31 | 1008 ± 0.31 | 1512.9 ± 1.1 | 1524.5 ± 1.1 | 1534.1 ± 1.1 | 1542.4 ± 1.1
m1 = 0.4006 | 1017.54 ± 0.31 | 1016.13 ± 0.31 | 1014.5 ± 0.31 | 1012.7 ± 0.31 | 1522.6 ± 1.1 | 1533.1 ± 1.1 | 1542 ± 1.1 | 1549.4 ± 1.1

CCCCn1cc[n+](C)c1.[Cl-] [1-butyl-3-methylimidazolium chloride] + O
Conditions | mass density, 293.15 K [kg/m3] | mass density, 298.15 K [kg/m3] | mass density, 303.15 K [kg/m3] | mass density, 308.15 K [kg/m3] | speed of sound, 293.15 K [m/s] | speed of sound, 298.15 K [m/s] | speed of sound, 303.15 K [m/s] | speed of sound, 308.15 K [m/s]
m1 = 0.101 | 999.535 ± 0.3 | 998.308 ± 0.3 | 996.883 ± 0.3 | 995.222 ± 0.3 | 1496.7 ± 1 | 1509.8 ± 1 | 1521.1 ± 1 | 1530.8 ± 1
m1 = 0.1997 | 1000.82 ± 0.3 | 999.565 ± 0.3 | 998.065 ± 0.3 | 996.342 ± 0.3 | 1510.4 ± 1.1 | 1522.7 ± 1.1 | 1533 ± 1.1 | 1542 ± 1
m1 = 0.3007 | 1002.1 ± 0.3 | 1000.79 ± 0.3 | 999.244 ± 0.3 | 997.484 ± 0.3 | 1523.6 ± 1.1 | 1534.7 ± 1.1 | 1544.3 ± 1.1 | 1552.7 ± 1.1
m1 = 0.4004 | 1003.37 ± 0.3 | 1002 ± 0.3 | 1000.4 ± 0.3 | 998.586 ± 0.3 | 1536.1 ± 1.1 | 1546.5 ± 1.1 | 1555.3 ± 1.1 | 1562.6 ± 1.1
